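96-well plates; 48 h exposure; 5 concentrations. Endpoints by linear interpolation between flanking doses. Not reached: highest tested concentration assigned. At the GI50, growth is halved.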 Active and inactive are the calls of the source. No stated cut-off is given here; in the data, active = GI50 up to about 1.1 µM and inactive = higher.
Key:
Test in all cases: DTP human tumour cell line panel, 48 h
M14 = system: M14
SF-268 = system: SF-268
RXF 393 = system: RXF 393
NCI-H522 = system: NCI-H522
SNB-78 = system: SNB-78
HOP-18 = system: HOP-18
HL-60 = system: HL-60
MOLT-4 = system: MOLT-4
DMS-114 = system: DMS-114
HCT-15 = system: HCT-15
SK-MEL-2 = system: SK-MEL-2
U-251 = system: U-251
HCT-116 = system: HCT-116
NCI-H460 = system: NCI-H460
UO-31 = system: UO-31
DMS-273 = system: DMS-273
SK-OV-3 = system: SK-OV-3
HCC 2998 = system: HCC 2998
RPMI-8226 = system: RPMI-8226
Malme-3M = system: Malme-3M
K562 = system: K562
CCRF-CEM = system: CCRF-CEM
A549 = system: A549
SK-MEL-28 = system: SK-MEL-28
786-0 = system: 786-0
LXFL 529 = system: LXFL 529
OVCAR-3 = system: OVCAR-3
MDA-N = system: MDA-N
MDA-MB-231 = system: MDA-MB-231
UACC-257 = system: UACC-257
SNB-75 = system: SNB-75
SW-620 = system: SW-620
SNB-19 = system: SNB-19
OVCAR-8 = system: OVCAR-8
EKVX = system: EKVX
HOP-92 = system: HOP-92
NCI-H226 = system: NCI-H226
MDA-MB-435 = system: MDA-MB-435
HT-29 = system: HT-29
TK-10 = system: TK-10
OVCAR-5 = system: OVCAR-5
SN12C = system: SN12C
SF-539 = system: SF-539
A498 = system: A498
LOX IMVI = system: LOX IMVI
CAKI-1 = system: CAKI-1
SR = system: SR
DU-145 = system: DU-145
PC-3 = system: PC-3
ACHN = system: ACHN
SF-295 = system: SF-295
HOP-62 = system: HOP-62
OVCAR-4 = system: OVCAR-4
Hs-578T = system: Hs-578T
T47D = system: T47D
NCI-H23 = system: NCI-H23
SK-MEL-5 = system: SK-MEL-5
COLO 205 = system: COLO 205
BT-549 = system: BT-549
KM12 = system: KM12
UACC-62 = system: UACC-62
MCF7 = system: MCF7
NCI/ADR-RES = system: NCI/ADR-RES
IGROV-1 = system: IGROV-1

**Q.** How did the GI50 (M14) turn out when CCOc1ccccc1NC(=O)C(=O)C1C(=O)Nc2ccccc2[S+]1[O-] (configuration not stated) was run?
**A.** > 100 µM (inactive)

**Q.** What about the GI50 (SF-268) of the same molecule?
**A.** > 100 µM (inactive)

**Q.** What about the GI50 (RXF 393) of the same molecule?
**A.** > 100 µM (inactive)

**Q.** And the GI50 (NCI-H522)?
**A.** > 100 µM (inactive)

**Q.** What about the GI50 (SNB-78) of the same molecule?
**A.** > 100 µM (inactive)

**Q.** What about the GI50 (HOP-18) of the same molecule?
**A.** > 100 µM (inactive)

**Q.** And the GI50 (HL-60)?
**A.** > 100 µM (inactive)

**Q.** And the GI50 (MOLT-4)?
**A.** > 100 µM (inactive)

**Q.** And the GI50 (DMS-114)?
**A.** > 100 µM (inactive)

**Q.** What about the GI50 (HCT-15) of the same molecule?
**A.** > 100 µM

**Q.** What about the GI50 (SK-MEL-2) of the same molecule?
**A.** > 100 µM (inactive)

**Q.** And the GI50 (U-251)?
**A.** > 100 µM (inactive)

**Q.** And the GI50 (HCT-116)?
**A.** > 100 µM (inactive)

**Q.** And the GI50 (NCI-H460)?
**A.** > 100 µM (inactive)

**Q.** And the GI50 (UO-31)?
**A.** > 100 µM (inactive)

**Q.** And the GI50 (DMS-273)?
**A.** > 100 µM (inactive)

**Q.** What about the GI50 (SK-OV-3) of the same molecule?
**A.** > 100 µM (inactive)

**Q.** What about the GI50 (HCC 2998) of the same molecule?
**A.** > 100 µM (inactive)

**Q.** What about the GI50 (RPMI-8226) of the same molecule?
**A.** > 100 µM (inactive)

**Q.** And the GI50 (Malme-3M)?
**A.** > 100 µM (inactive)

**Q.** And the GI50 (K562)?
**A.** > 100 µM (inactive)

**Q.** What about the GI50 (CCRF-CEM) of the same molecule?
**A.** > 100 µM (inactive)

**Q.** What about the GI50 (A549) of the same molecule?
**A.** > 100 µM (inactive)

**Q.** And the GI50 (SK-MEL-28)?
**A.** > 100 µM (inactive)

**Q.** What about the GI50 (786-0) of the same molecule?
**A.** > 100 µM (inactive)

**Q.** And the GI50 (LXFL 529)?
**A.** > 100 µM (inactive)

**Q.** And the GI50 (OVCAR-3)?
**A.** > 100 µM (inactive)

**Q.** How did the GI50 (MDA-N) turn out when CC1(C)CC(=O)C2=C(C1)C(c1ccccc1Cl)C1C(=O)CC(C)(C)CC1(O)O2 (configuration not stated) was run?
**A.** 19.6 µM (inactive)

**Q.** What about the GI50 (M14) of the same molecule?
**A.** 98.2 µM (inactive)

**Q.** What about the GI50 (MDA-MB-231) of the same molecule?
**A.** > 100 µM (inactive)

**Q.** What about the GI50 (UACC-257) of the same molecule?
**A.** > 49.9 µM (inactive)

**Q.** And the GI50 (SNB-75)?
**A.** > 78.3 µM (inactive)

**Q.** What about the GI50 (SW-620) of the same molecule?
**A.** 43.7 µM (inactive)

**Q.** What about the GI50 (SF-268) of the same molecule?
**A.** > 100 µM (inactive)

**Q.** And the GI50 (RXF 393)?
**A.** > 100 µM (inactive)

**Q.** And the GI50 (NCI-H522)?
**A.** > 100 µM (inactive)

**Q.** And the GI50 (SNB-19)?
**A.** > 100 µM (inactive)

**Q.** And the GI50 (OVCAR-8)?
**A.** > 86.7 µM (inactive)

**Q.** What about the GI50 (EKVX) of the same molecule?
**A.** > 100 µM (inactive)

**Q.** And the GI50 (HOP-92)?
**A.** > 100 µM (inactive)

**Q.** What about the GI50 (HL-60) of the same molecule?
**A.** 4.91 µM (inactive)

**Q.** And the GI50 (NCI-H226)?
**A.** > 100 µM (inactive)

**Q.** And the GI50 (MOLT-4)?
**A.** 74.5 µM (inactive)

**Q.** And the GI50 (MDA-MB-435)?
**A.** 25.9 µM (inactive)

**Q.** And the GI50 (HT-29)?
**A.** > 100 µM (inactive)

**Q.** And the GI50 (TK-10)?
**A.** > 100 µM (inactive)

**Q.** And the GI50 (HCT-15)?
**A.** 42.5 µM

**Q.** And the GI50 (SK-MEL-2)?
**A.** > 100 µM (inactive)

**Q.** And the GI50 (U-251)?
**A.** > 100 µM (inactive)

**Q.** What about the GI50 (HCT-116) of the same molecule?
**A.** 26.9 µM (inactive)

**Q.** What about the GI50 (OVCAR-5) of the same molecule?
**A.** > 100 µM (inactive)

**Q.** And the GI50 (SN12C)?
**A.** > 100 µM (inactive)

**Q.** And the GI50 (SF-539)?
**A.** 69 µM (inactive)

**Q.** What about the GI50 (NCI-H460) of the same molecule?
**A.** > 100 µM (inactive)

**Q.** What about the GI50 (A498) of the same molecule?
**A.** > 100 µM (inactive)

**Q.** And the GI50 (LOX IMVI)?
**A.** > 68.2 µM (inactive)

**Q.** And the GI50 (UO-31)?
**A.** > 100 µM (inactive)

**Q.** And the GI50 (CAKI-1)?
**A.** 98.2 µM (inactive)

**Q.** And the GI50 (SR)?
**A.** 28.1 µM (inactive)

**Q.** What about the GI50 (SK-OV-3) of the same molecule?
**A.** > 100 µM (inactive)

**Q.** And the GI50 (HCC 2998)?
**A.** > 100 µM (inactive)

**Q.** What about the GI50 (DU-145) of the same molecule?
**A.** > 100 µM (inactive)

**Q.** What about the GI50 (PC-3) of the same molecule?
**A.** > 100 µM (inactive)

**Q.** And the GI50 (ACHN)?
**A.** > 100 µM (inactive)

**Q.** And the GI50 (SF-295)?
**A.** > 31.6 µM (inactive)

**Q.** What about the GI50 (RPMI-8226) of the same molecule?
**A.** > 84.1 µM (inactive)

**Q.** And the GI50 (HOP-62)?
**A.** > 100 µM (inactive)

**Q.** And the GI50 (OVCAR-4)?
**A.** > 100 µM (inactive)

**Q.** What about the GI50 (Malme-3M) of the same molecule?
**A.** > 100 µM (inactive)

**Q.** And the GI50 (Hs-578T)?
**A.** > 72.3 µM (inactive)

**Q.** What about the GI50 (K562) of the same molecule?
**A.** 15.3 µM (inactive)

**Q.** What about the GI50 (T47D) of the same molecule?
**A.** > 100 µM (inactive)

**Q.** What about the GI50 (NCI-H23) of the same molecule?
**A.** > 100 µM (inactive)

**Q.** What about the GI50 (SK-MEL-5) of the same molecule?
**A.** 64.1 µM (inactive)

**Q.** What about the GI50 (CCRF-CEM) of the same molecule?
**A.** 26.8 µM (inactive)

**Q.** What about the GI50 (A549) of the same molecule?
**A.** > 100 µM (inactive)

**Q.** What about the GI50 (SK-MEL-28) of the same molecule?
**A.** > 100 µM (inactive)

**Q.** And the GI50 (COLO 205)?
**A.** > 31.6 µM (inactive)

**Q.** What about the GI50 (BT-549) of the same molecule?
**A.** > 100 µM (inactive)

**Q.** What about the GI50 (786-0) of the same molecule?
**A.** > 100 µM (inactive)

**Q.** What about the GI50 (KM12) of the same molecule?
**A.** > 100 µM (inactive)

**Q.** What about the GI50 (UACC-62) of the same molecule?
**A.** > 64.7 µM (inactive)

**Q.** What about the GI50 (MCF7) of the same molecule?
**A.** 37.3 µM (inactive)

**Q.** What about the GI50 (NCI/ADR-RES) of the same molecule?
**A.** > 89.1 µM (inactive)

**Q.** And the GI50 (OVCAR-3)?
**A.** > 100 µM (inactive)

**Q.** What about the GI50 (IGROV-1) of the same molecule?
**A.** > 100 µM (inactive)

**Q.** What does the source list for CC(C)C(=O)CC(c1ccc(Cl)cc1)N1N=C(C(C)C)CC1c1ccc(Cl)cc1 (configuration not stated)?
**A.** GI50 (SNB-75): 86.9 µM (inactive); GI50 (SW-620): 37.2 µM (inactive); GI50 (NCI-H522): < 0.01 µM (active); GI50 (SNB-78): 5.97 µM (inactive); GI50 (HOP-18): < 0.01 µM (active); GI50 (EKVX): 29.5 µM (inactive); GI50 (HOP-92): > 86.3 µM (inactive); GI50 (NCI-H226): > 100 µM (inactive); GI50 (HT-29): 14.6 µM (inactive); GI50 (TK-10): > 100 µM (inactive); GI50 (SK-MEL-2): > 51.5 µM (inactive); GI50 (SN12C): < 0.01 µM (active); GI50 (LOX IMVI): < 0.01 µM (active); GI50 (DMS-273): < 0.01 µM (active); GI50 (SK-OV-3): < 0.01 µM (active); GI50 (HOP-62): 70 µM (inactive); GI50 (Malme-3M): < 0.01 µM (active); GI50 (NCI-H23): 22.6 µM (inactive); GI50 (SK-MEL-28): 40.7 µM (inactive); GI50 (KM12): 40.6 µM (inactive); GI50 (LXFL 529): 98.4 µM (inactive)
